Test results taken from patent US5084082A, “Soybean plants with dominant selectable trait for herbicide resistance” (priority 1990, dated 1992).

Experiments:
Test in all cases: In vitro ALS activity of leaf tissue in the presence of Compounds 8 and 9
Assay type in all cases: biochemical, soybean
ALS of W20 = conditions: W20, 100 ppb
From the text: (§1) At approximately 1 month after transplantation, some of the selections appeared much healthier than others. For example, W4-4, W4-6, W6-1, W6-2, W6-4, W23-10, and W23-11 recovered very well from the seed soak treatment with Compound 8. These plants were suspected of having a higher level of ALS resistance to Compound 8 than did the parental material from which they were derived. The applicant was also interested to see if any of these selections were cross resistant to an imidazolinone herbicide such as Compound 9. To test this hypothesis, leaf tissue of the one-month-old M2 plants was sampled and assayed in vitro for ALS activity in the presence of Compound 8 and Compound 9. The ALS assay procedure was essentially identical to the previously described ALS assay except that the herbicide concentrations tested were 100 ppb Compound 8 and 10 ppm Compound 9. Williams and mutant W20 soybean plants were also assayed as control genotypes for comparison. Williams contains no genes conferring the ALS-based sulfonylurea resistance while W20 is homozygous for a single mutation conferring ALS-based sulfonylurea resistance.
(§2) Acetolactate synthase (ALS) was extracted from leaves of soybean plants growing vegetatively. The leaves were homogenized in 4 volumes of buffer containing 100 mM hepes (pH 7.5), 1 mM sodium pyruvate, 0.5 mM magnesium chloride, 0.5 mM thiamine pyrophosphate, […], 10% glycerol, 5% PVPP, and 0.2% mercaptoethanol. The homogenate was filtered through cheese cloth and centrifuged at 20,000 g for 20 min. ALS was precipitated from the supernatant with ammonium sulfate. The enzyme was collected between 20 and 60% saturation by centrifugation at 20,000 g for 20 min. The pellet was resuspended in buffer containing 100 mM Hepes, 1 mM sodium pyruvate, and 0.5 mM magnesium chloride, and desalted on PD-10 columns (Pharmacia) equilibrated with the same buffer. ALS assays were carried out in a final volume of 0.5 mL at 30° C. The final reaction mixture contained 100 mM Hepes (pH 7.5), 1 mM magnesium chloride, 60 mM sodium pyruvate, 0.4 mM thiaminepyrophosphate, […], and various concentrations of chlorsulfuron. The assays were initiated with the addition of enzyme ([…]) and terminated with the addition of […] of 6N sulfuric acid. The acidified reaction mixture was heated to 60° C. for 15 min, after which 0.5 mL of 0.5% (W/V) creatine and 0.5 mL of 5% (W/V) napthol (freshly prepared in 2.5 N sodium hydroxide) were added. The reaction mixtures were heated for an additional 15 min at 60° C., and the absorbance was read at 525 nm. Data are expressed in terms of % control (minus Compound 1) activity and are the average of two replications. Fisher's least significant difference (LSD) value (at the 95% level of confidence) was calculated for each Compound 1 concentration to determine the significance of genotype mean differences.

ALS of W23-10 = conditions: W23-10, 100 ppb
From the text: as §1, §2

ALS of W23-11 = conditions: W23-11, 100 ppb
From the text: as §1, §2

ALS of W4-6 = conditions: W4-6, 100 ppb
From the text: as §1, §2

ALS of W6-2 = conditions: W6-2, 100 ppb
From the text: as §1, §2

ALS of W6-4 = conditions: W6-4, 100 ppb
From the text: as §1, §2

ALS of Williams = conditions: 100 ppb
From the text: as §1, §2

## COC(=O)c1cccnc1S(=O)(=O)NC(=O)Nc1nc(OC)cc(OC)n1 [Compound 8, Methyl 2-[[[[(4,6-dimethoxy-2-pyrimidinyl)amino]carbonyl]amino]sulfonyl]-3-pyridinecarboxylate]
ALS of W20
  uninhibited ALS activity as % of control: 10.7 % of control
ALS of W23-10
  uninhibited ALS activity as % of control: 7.9 % of control
ALS of W23-11
  uninhibited ALS activity as % of control: 3.8 % of control
ALS of W4-6
  uninhibited ALS activity as % of control: 4.0 % of control
ALS of W6-2
  uninhibited ALS activity as % of control: 9.7 % of control
ALS of W6-4
  uninhibited ALS activity as % of control: 10.5 % of control
ALS of Williams
  uninhibited ALS activity as % of control: -0.3 % of control
